Entries after “also recorded” stand apart in the source; their conditions may differ.
Legend:
broiler chickens = assay: Growth performance and mortality of broiler chickens raised in floor pens; assay type: in vivo, broiler chickens (Cobb×Cobb); conditions: for Feed Conversion, Day 21-35: grower period; for Daily Feed intake, Day 0-21 / Daily Feed intake, Day 0-35 / Daily Feed intake, Day 21-35: per bird
Experimental: This experiment examined the effect of N-(3-oxohexanoyl)-L-homoserine lactone (OHHL) (CAS #: 143537626, molecular formula : C10H15NO4, molecular weight: 213) on the growth performance and mortality of broiler chickens.
A stock solution of 1 mM OHHL (0.213 g/L) was prepared as follows. Approximately 50% of the required volume of distilled water was warmed to approximately 30-40° C. and used to dissolve the required amount of OHHL powder. The solution was made up to volume using distilled water stored at room temperature. OHHL solution (0.213 g/L) was applied to treated crumbled feed at a rate of 3 kg per tonne. Control feed was treated with distilled water at a rate of 3 kg per tonne. The OHHL solution was stored for less than 2 days prior to application to feed.
The antibiotic BMD®110 was used as a positive control in this study. The active ingredient is bacitracin methylene disalicyclate. The product contains 110 g of bacitracin activity per kg and is approved for prevention of necrotic enteritis in broiler chickens when given at a dose of 55 ppm in feed (500 g BMD®110/tonne feed).
Coxistac® 6% premix was used as an ionophore in all study diets as an aid in the prevention of coccidiosis. The product contained 60 g salinomycin per kg and was administered at a dose of 60 ppm in feed (1 kg Coxistac® 6% premix per tonne feed).
The experiment lasted 35 days with the day of placement of broiler chicks considered as day zero. A total of 1,200 male day-old broiler chickens (Cobb×Cobb) were assigned to treatment on day 0. Birds were vaccinated for Marek's disease at the hatchery. Twenty-four pens, each providing 45 square feet of floor space, were assigned to treatment groups. […] Adjacent pens were separated by a solid 12-inch high plastic barrier at bird level. A welded wire fence with 1-inch square openings was located on top of all barriers. Each pen was permanently identified by number and contained 50 birds on day zero. Each pen contained four nipple-type drinkers which provided clean drinking water ad libitum. Dry feed was provided ad libitum in tube-type feeders (one per pen) of 20 kg capacity.
The barn was heated by five natural gas heaters which were equally spaced and positioned to warm incoming air at the north wall of the building. Air was exhausted by fans located on the south-facing wall of the building. Lighting program, barn temperature, and other management practices were typical of commercial broiler chicken producers in North America. Birds that were moribund and unable to reach food or water were culled and euthanised by carbon dioxide gas.
Bodyweight, pen number and date of death were recorded for each bird that was culled or found dead. Mortalities were submitted to the pathologist to determine the apparent cause of death.
A randomised complete block design was used to study the main and interactive-effects of OHHL (0 and 0.639 g/tonne) and dietary antibiotic ([…]) in a 2×2 factorial arrangement. Dietary treatments were as follows:
There were four pens per block and six replicate blocks for a total of 24 pens.
The feeding program was used in the study used a starter feed type on days 0 to 20 and a grower feed type on days 21 to 35. Diet formulation was representative of commercial diets in North America.
A starter diets using a basal mix of starter diet containing either 0 or 55 ppm BMD was manufactured, pelleted, and crumbled. Bagged starter feed was treated with either distilled water (0 g OHHL per L) or OHHL solution (0.213 g OHHL per L) using a horizontal double ribbon mixer of 100 kg capacity. Distilled water or OHHL solution (0.213 g per L) were applied to crumbled feed at a rate of 3 kg per tonne feed. Grower diets were manufactured as described above for starters.
The data collected consisted of:
1. Bodyweight on days 0, 21, and 35.
2. Amounts of each feed (starter and grower) consumed.
3. Bodyweight and date of death for birds which were culled or died.
4. […]

cultures of rumen fluid = assay: In vitro digestion of grass silage by cultures of rumen fluid; assay type: cell-based, cow; conditions: OHHL 0, 200, 500 and 1000 nanomoles final in rumen fluid, 37° C., 10 hours, triplicate
Source text: Autoinducer compounds such as acyl homoserine lactones can have significant effects on cultures of bacteria. For example, they may be used to induce expression of antibiotics and extracellular enzymes. […] is the signal molecule for antibiotic production in Chromobacterium violaceum; butanoyl homoserine lactone triggers various phenotypes in Pseudomonas aeruginosa including the production of various enzymes and lectins. OHHL is known to have different effects on different species. For example, in Erwinia stewartii it induces production of exopolysaccharides, while in Vibrio species it promotes bioluminescence. Thus, in a complex mixed culture comprising many species including ruminobacter sp., prevotella sp., ruminococcus sp., it is hard to predict the specific phenotypes that will be induced by even the introduction of just one autoinducer compound. However. the global effect on rumen mixed culture fermentation can be measured in terms of the efficiency of digestion of forage. […] A control sample treated with water and four test samples treated with using nanomolar concentrations of OHHL are examined.
Rumen fluid was collected from a healthy fistulated grass fed cow and immediately dispensed into 75 ml bottles. These bottles were kept at 37° C. […]

sheep = assay: Rumen dry matter disappearance of corn silage in cannulated sheep (in situ bags); assay type: in vivo; design: dry matter disappearance, OHHL − Control, Mean / dry matter disappearance, OHHL − Control, 4 Hours / dry matter disappearance, OHHL − Control, 8 Hours / dry matter disappearance, OHHL − Control, 12 Hours / dry matter disappearance, OHHL − Control, 24 Hours: concentration or dose not given beside the values
Experimental: This experiment examined the effect of N-(3-oxohexanoyl)-L-homoserine lactone (OHHL) (CAS#: 143537626, molecular formula : C10H15NO4, molecular weight: 213) on rumen dry matter disappearance in vivo in sheep.
A stock solution of OHHL (0.639 gram/L) was prepared as follows. Approximately 50% of the required volume of distilled water was warmed to approximately 30-40° C. and used to dissolve the required amount of OHHL powder. The volumetric flask was made up to volume using distilled water stored at room temperature. OHHL solution was applied to pelleted sheep ration at a rate of 3 kg per tonne of feed. Control feed was treated with 3 kg of distilled water per tonne.
Initial attempts to administer OHHL by application of an aqueous solution to the outside of pelleted feed were modified as the sheep decreased intake of treated feed after a few days. Instead, OHHL was administered as an oral drench twice daily commencing on the afternoon of Day 11 of each period.
A restricted quantity of pelleted ration was provided at a rate of approximately 0.5 kg/day (0.25 kg in the a.m. and 0.25 kg in the p.m.). Access to hay was restricted as needed to help ensure that sheep ration was consumed.
On Days 12 and 13, pelleted ration (0.25 kg/animal) was issued to animals approximately 1 hour prior to introduction of bags into the rumen and again following removal of the 8-hour bag from each animal.
One fresh sample of corn silage was dried to constant weight and allowed to cool to room temperature. A representative sub-sample was taken for dry matter determination. The sample was ground to pass a 1 mm screen, mixed and sampled for dry matter assay. The remaining sample was stored for in situ determination of dry matter disappearance from the rumen of cannulated sheep.
Ankom rumen sampling bags were used in the study. Each bag was approximately 5 cm×10 cm, suitable for a one-gram sample. Pore size was 53±10 microns. Dried, ground corn silage was weighed (1.00±0.01 grams) into bags and sealed. A set of four bags was prepared per animal per day and these were attached to a string to facilitate placement in and removal from the rumen. A fifth bag served as a blank for each set of four bags. The blank was not placed in the rumen but was washed, processed and dried.
A rumen cannula was surgically placed in each of five mature (approximately 3-year old) ewes. Following recovery from surgery, four of these animals were selected for use in the study. The fifth animal served as a reserve for use in the event of post-surgical complications in a study animal.
Dry matter disappearance was measured by removing bags from the rumen at 4, 8, 12 and 24 hours and washed under cold running tap water together with a corresponding blank bag. Bags were then dried to constant weight. Measurement of dry matter disappearance was completed for each animal commencing on the morning of Day 12 and Day 13 of each period.
A Latin Square Design was used to study the effects of two treatments:
A, Control: 0 gram OHHL per tonne ration.
B: Treated with the equivalent of 1.917 gram OHHL per tonne ration.
Each period was of 14 days duration. A total of four study animals were blocked based on bodyweight (2 blocks). Animals within block were randomly assigned to Sequence 1 or 2:
Data were analysed by a multiple regression analysis that included effects of treatment, animal, period, study day and hour.

[1] = individual treatment mean (2×2 factorial cell)
[2] = individual treatment mean (2×2 factorial cell), OHHL 0.639 g/tonne feed, BMD 110 500 g/tonne
[3] = main-effect mean pooled over the other factor

`CCCC(=O)CC(=O)N[C@H]1CCOC1=O` [OHHL, N-(3-oxohexanoyl)-L-homoserine lactone] was tested, and the “adverse effects on bird health / survival” value (broiler chickens; continuous administration in feed for 35 days, necropsy of all mortalities) was “no evidence of any adverse effect; also recorded: did not have an adverse effect on bird survival”, the “Mortality, Day 0-21” value (broiler chickens; [1]) was 1.0% and the “Mortality, Day 0-35” value (broiler chickens; [1]) was 1.7%. The “Mortality, Day 21-35” value (broiler chickens; [1]) was 0.7%, the “Average bodyweight, Day 21” value (broiler chickens; [2]) was 0.796 kg and the “Average bodyweight, Day 35” value (broiler chickens; [2]) was 1.934 kg. The “Feed Conversion, Day 21-35” value (broiler chickens; [1]) was 1.812, the “Feed Conversion, Day 0-35” value (broiler chickens; individual treatment mean (2×2 factorial cell), overall period) was 1.629 and the “Daily Feed intake, Day 0-21” value (broiler chickens; [1]) was 0.049. The “Daily Feed intake, Day 0-35” value (broiler chickens; [1]) was 0.088, the “Daily Feed intake, Day 21-35” value (broiler chickens; [1]) was 0.147 and the “Feed Conversion, Day 0-21” value (broiler chickens; individual treatment mean (2×2 factorial cell), starter period) was 1.357. The “Mortality, Day 0-21” value (broiler chickens; [3]) was 1.3%, the “Mortality, Day 0-35” value (broiler chickens; [3]) was 2.2% and the “Mortality, Day 21-35” value (broiler chickens; [3]) was 0.8%. The “Average bodyweight, Day 35” value (broiler chickens; main-effect mean pooled over the other factor, OHHL 0.639 g/tonne feed, BMD 110 500 g/tonne) was 1.937 kg, the “Feed Conversion, Day 21-35” value (broiler chickens; [3]) was 1.794 and the “Daily Feed intake, Day 0-21” value (broiler chickens; [3]) was 0.048. The “Daily Feed intake, Day 0-35” value (broiler chickens; [3]) was 0.087, the “Daily Feed intake, Day 21-35” value (broiler chickens; [3]) was 0.147 and the “mean percentage loss of weight of grass silage” value (cultures of rumen fluid) was “increased the mean percentage loss of weight”. For the same compound, the “dry matter disappearance, 4 Hours” value (sheep; corn silage in rumen bags, 4 h incubation, OHHL equivalent to 1.917 gram per tonne ration, oral drench twice daily) was 53.0%, the “dry matter disappearance, 8 Hours” value (sheep; corn silage in rumen bags, 8 h incubation, OHHL equivalent to 1.917 gram per tonne ration) was 57.8% and the “dry matter disappearance, 12 Hours” value (sheep; corn silage in rumen bags, 12 h incubation, OHHL equivalent to 1.917 gram per tonne ration) was 65.7%. For the same compound, the “dry matter disappearance, 24 Hours” value (sheep; corn silage in rumen bags, 24 h incubation, OHHL equivalent to 1.917 gram per tonne ration) was 74.5%, the “dry matter disappearance, OHHL − Control, 4 Hours” value (sheep; difference to control, 4 h) was 4.16% and the “dry matter disappearance, OHHL − Control, 8 Hours” value (sheep; difference to control, 8 h) was −0.60%. The “dry matter disappearance, OHHL − Control, 12 Hours” value (sheep; difference to control, 12 h) was 3.36%, the “dry matter disappearance, OHHL − Control, 24 Hours” value (sheep; difference to control, 24 h) was 0.15% and the “dry matter disappearance, OHHL − Control, Mean” value (sheep; difference to control, mean of all times (percentage units; P=0.105)) was 1.77%. For the same compound, the “dry matter disappearance, Mean” value (sheep; mean over 4, 8, 12, 24 h) was 62.7%.
